# “Also recorded” adds a separate entry of the source. Read-outs that look alike come from different tables or passages of the source.
# Key:
# [1] = system: CK1δ; conditions: prior to standardization, cited from earlier work
# [2] = system: zebrafish embryos; conditions: for phenotype of treated zebrafish embryos: 24 to 72 hpf (48 h); for dose dependence of phenotype: 5, 10, 20 and 40 µM
# [3] = target: T1, GST-humCK1δ^TV1 (Homo sapiens, UniProt P48730); test: in vitro kinase assay, α-casein phosphorylation with [γ-32P]-ATP, standard conditions; type: biochemical; conditions: for mean residual kinase activity ± SD: 20 µM inhibitor, normalized to DMSO control
# T1 construct: made in house; host or cells: E. coli Rosetta 2 (DE3)
# T1 sequence (P48730 whole entry): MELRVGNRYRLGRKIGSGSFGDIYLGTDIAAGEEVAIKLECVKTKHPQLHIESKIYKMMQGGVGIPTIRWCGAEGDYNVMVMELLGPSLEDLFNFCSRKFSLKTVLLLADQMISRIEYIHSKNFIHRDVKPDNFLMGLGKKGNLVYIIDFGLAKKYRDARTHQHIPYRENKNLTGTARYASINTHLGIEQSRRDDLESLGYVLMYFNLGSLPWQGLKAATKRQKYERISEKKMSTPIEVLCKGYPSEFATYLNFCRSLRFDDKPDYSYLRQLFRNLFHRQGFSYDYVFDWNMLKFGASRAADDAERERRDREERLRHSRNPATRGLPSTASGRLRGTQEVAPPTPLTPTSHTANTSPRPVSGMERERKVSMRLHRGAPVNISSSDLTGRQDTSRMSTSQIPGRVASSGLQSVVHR
# Description: (§1) Each in vitro kinase reaction was performed in a total volume of 15 µL containing 25 mM Tris-HCl (pH 7.0), 10 mM MgCl2, 100 µM EDTA, 2.8 µM of the substrate α-casein and 0.4 pmol [γ-^32P]-ATP at 30°C. […] Reactions were stopped by adding 3 µL of 5x SDS loading buffer and incubating at 95°C for 5 min. Proteins were separated by SDS-PAGE and stained with Coomassie Brilliant Blue R250 (Waldeck GmbH & Co. KG, Muenster, Germany). Autoradiography visualized the incorporation of radioactively labelled γ-phosphate into the proteins. A quantitative analysis of the radioactive signal was performed by excising the proteins from dried gels and measuring phosphate incorporation via Cherenkov counting (Beckmann Scintillation Counter). For the determination of the initial velocity region, a linear regression was performed. Thereby, the number of included data-points was decreased stepwise, and the point of time with the highest maximum coefficient of determination (R ^2) was chosen as the kinase-specific standard reaction time. For determination of the maximal velocity (Vmax) and Michaelis constant (Km) of ATP, various ATP concentrations in a range from 0.5 to 250 µM were tested. Raw data was used for the calculation of enzyme velocity (V) in [pmol/min]. Then, V was plotted over substrate (ATP) concentration and fitted to the Michaelis-Menten model via GraphPad Prism 8 (GraphPad Software, La Jolla, CA, United States). According to the Michaelis-Menten curve, Km, which is the concentration of the substrate, that is needed to obtain half Vmax, was calculated. For determination of IC50 values, the scintillation data measured in cpm was transformed to pmol of transferred phosphate. The data was then transformed logarithmically (X = log(X)), normalized to DMSO (100%) and zero (0%) before fitting to sigmoidal dose-response curves with variable slope with nonlinear regression using GraphPad Prism 7.
# (§2) In compliance with the established standard conditions the kinase assays were performed in the presence of 20 µM of the respective inhibitor (Figure 7).
# (§3) Next, in vitro kinase assays were performed in absence and presence of the respective SMI at different concentrations (ranging from 13 to 26667 nM). The kinase activity of the inhibitor-treated samples was normalized to the DMSO-control and plotted against the inhibitor concentration (Figure 10).
# [4] = target: T2, GST-CK1ε (Homo sapiens, UniProt P49674); test: as above; type: biochemical; conditions: 20 µM inhibitor, normalized to DMSO control
# T2 construct: made in house; host or cells: E. coli Rosetta 2 (DE3)
# T2 sequence (P49674 whole entry): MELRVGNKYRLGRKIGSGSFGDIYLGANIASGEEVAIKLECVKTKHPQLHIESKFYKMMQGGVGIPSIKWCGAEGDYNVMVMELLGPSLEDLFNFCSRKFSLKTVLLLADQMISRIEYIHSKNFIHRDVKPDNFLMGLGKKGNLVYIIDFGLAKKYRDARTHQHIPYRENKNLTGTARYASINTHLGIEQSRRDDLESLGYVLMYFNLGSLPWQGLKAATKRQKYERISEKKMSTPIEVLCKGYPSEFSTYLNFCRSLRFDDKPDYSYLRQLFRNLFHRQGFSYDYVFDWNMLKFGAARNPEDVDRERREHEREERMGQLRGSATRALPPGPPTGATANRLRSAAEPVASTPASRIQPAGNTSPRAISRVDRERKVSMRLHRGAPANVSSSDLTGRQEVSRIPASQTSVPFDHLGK
# Description: as §1, §2
# [5] = target: CK1ε (Homo sapiens, UniProt P49674); test: initial IC50 determination in in vitro kinase assays, prior to standardization; type: biochemical; conditions: marked * not published, read-out: IC50 values CK1ε
# Chain of CK1ε (P49674 whole entry): as above
# Description: (§4) The SMIs used in this study (summarized in Supplementary Table S2) were selected based on their inhibitory capacity toward CK1δ in vitro, whereby a broad range of inhibitors with varying efficiency were included. The determination of IC50-values was conducted prior to the standardization workflow establishment. Zebrafish embryos treated with 20 µM of the respective compound were phenotypically analyzed.
# (§5) Supplementary Table 6: List of the inhibitors that were selected for the in vivo screening of zebrafish embryonic development. The compounds were selected based on their ability to inhibit CK1δ in in vitro kinase assays. The initial IC50-values were determined prior to the establishment of the standardized in vitro kinase assay protocol. The Supplementary Table summarizes, whether the zebrafish embryos presented an abnormal phenotype upon inhibitor treatment. The inhibitors were added to the zebrafish medium in a concentration of 20 µM.
# [6] = target: T3, His-DrCK1δB (Danio rerio, UniProt Q6P3K7); test: in vitro kinase assay, α-casein phosphorylation with [γ-32P]-ATP, standard conditions; type: biochemical, zebrafish (Danio rerio); conditions: for mean residual kinase activity ± SD: 20 µM inhibitor, normalized to DMSO control
# T3 construct: made in house; host or cells: E. coli Rosetta 2 (DE3)
# T3 sequence (Q6P3K7 1-409): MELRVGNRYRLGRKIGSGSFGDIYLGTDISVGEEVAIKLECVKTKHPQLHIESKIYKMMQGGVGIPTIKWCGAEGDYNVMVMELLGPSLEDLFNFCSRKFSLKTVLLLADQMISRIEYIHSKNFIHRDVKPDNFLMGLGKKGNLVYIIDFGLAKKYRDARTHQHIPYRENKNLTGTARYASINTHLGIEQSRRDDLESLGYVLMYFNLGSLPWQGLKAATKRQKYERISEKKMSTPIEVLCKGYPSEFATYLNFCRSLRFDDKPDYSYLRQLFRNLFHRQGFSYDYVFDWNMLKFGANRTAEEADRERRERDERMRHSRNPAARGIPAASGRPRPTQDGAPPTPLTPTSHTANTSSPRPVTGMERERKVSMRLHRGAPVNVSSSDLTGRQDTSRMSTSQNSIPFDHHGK
# Description: as §1, §2, §3
# [7] = target: T4, His-DrCK1δA (Danio rerio, UniProt Q7T2E3); test: as above; type: biochemical, zebrafish (Danio rerio); conditions: for mean residual kinase activity ± SD: 20 µM inhibitor, normalized to DMSO control
# T4 construct: made in house; host or cells: E. coli Rosetta 2 (DE3)
# T4 sequence (Q7T2E3 1-403): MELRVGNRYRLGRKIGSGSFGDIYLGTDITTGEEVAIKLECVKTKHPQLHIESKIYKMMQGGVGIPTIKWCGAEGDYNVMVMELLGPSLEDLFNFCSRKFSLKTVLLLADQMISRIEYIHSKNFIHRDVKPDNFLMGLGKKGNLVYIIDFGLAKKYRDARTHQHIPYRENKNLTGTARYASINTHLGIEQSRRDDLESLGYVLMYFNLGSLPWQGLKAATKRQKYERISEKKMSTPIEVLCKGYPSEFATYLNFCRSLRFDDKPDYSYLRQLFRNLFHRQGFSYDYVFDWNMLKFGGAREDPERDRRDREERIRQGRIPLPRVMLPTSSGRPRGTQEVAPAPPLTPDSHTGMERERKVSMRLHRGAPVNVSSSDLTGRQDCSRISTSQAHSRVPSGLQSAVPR
# Description: as §1, §2, §3
# [8] = system: His-DrCK1ε; test: as above; type: biochemical, zebrafish (Danio rerio); conditions: 20 µM inhibitor, normalized to DMSO control
# Description: as §1, §2
# [9] = target: CK1δ (TV1) (Homo sapiens, UniProt P48730); test: initial IC50 determination in in vitro kinase assays, prior to standardization; type: biochemical; conditions: not published
# Chain of CK1δ (TV1) (P48730 whole entry): as the sequence (P48730 whole entry) above
# Description: as §4, §5
# [10] = system: csnk1db (CK1δB); test: morpholino knockdown in zebrafish embryos, phenotype; type: in vivo, zebrafish (D. rerio); conditions: 300 µM injected, 72 hpf
# Excerpt: The TüAB wildtype strain was used for all experiments. […] DMSO served as solvent control. […] Embryos were immobilized in 2.5% methylcellulose.
# [11] = inhibitor 13 to 26667 nM, ATP at Km, normalized to DMSO
# [12] = resulting from IC50 (Cheng-Prusoff, ATP at Km)
mean residual kinase activity ± SD [3] [%],mean residual kinase activity ± SD [4] [%],"Phenotypic changes (with severity) after treatment of zebrafish embryos with 20 µM inhibitor ([2]; 20 µM in medium, from 24 hpf)",mean residual kinase activity ± SD [6] [%],mean residual kinase activity ± SD [7] [%],mean residual kinase activity ± SD [8] [%],IC50 [9] [nM],Molecule,phenotype of treated zebrafish embryos ([2]; 5 µM),phenotype of treated zebrafish embryos ([2]; 10 µM),phenotype of treated zebrafish embryos ([2]; 20 µM),phenotype of treated zebrafish embryos ([2]; 40 µM),further results
,,,,,,,O=C(CSc1nc2c(c(=O)n1-c1ccccc1)SCC2)Nc1nc2ccc(C(F)(F)F)cc2s1 [G1-1],,,,,"IC50 ([1]; ref García-Reyes et al., 2018): 660 nM; Phenotypic changes ([2]; zebrafish, in vivo): Mild bradycardia; Phenotypic changes (with severity) after treatment of zebrafish embryos with 20 µM inhibitor ([2]; zebrafish, in vivo): Yes (mild)"
,,,,,,,O=C(CSc1nc2c(c(=O)n1Cc1ccc(C(F)(F)F)cc1)SCC2)Nc1nc2ccc(C(F)(F)F)cc2s1 [G1-3],,,,,"IC50 ([1]; ref García-Reyes et al., 2018): 330 nM; Phenotypic changes ([2]; zebrafish, in vivo): None observed; Phenotypic changes (with severity) after treatment of zebrafish embryos with 20 µM inhibitor ([2]; zebrafish, in vivo): No"
3.2 ± 0.3,8.6 ± 1.6,Yes (severe),6.3 ± 0.8,7.6 ± 1.2,11.3 ± 3.3,970,"COc1ccccc1-n1c(SCC(=O)Nc2nc3ccc(C(F)(F)F)cc3s2)nccc1=O [G2-4, 2-((3-(2-Methoxyphenyl)-4-oxo-3,4-dihydropyrimidin-2-yl)thio)-N-(6-(trifluormethyl)benzo[d]thiazol-2-yl)acetamid]",mild phenotype with a minor blood congestion,weakly beating ventricle and a pericardial edema,"strong cardiac phenotype, with blood congestion, a strong bradycardia and partially total loss of heart beat; also recorded: severe effects on the embryonic development, with strong bradycardia and blood congestion; also recorded: pericardial edema; also recorded: almost not beating","bradycardia, a loss of ventricular beating and as a result pericardial edema",dose dependence of phenotype ([2]; 48 h of incubation): increasingly severe cardiac malfunctions with increasing compound concentrations
,,No,,,,840,"COc1ccc(-n2c(SCC(=O)Nc3nc4ccc(C(F)(F)F)cc4s3)nccc2=O)cc1 [G2-5, 2-((3-(4-Methoxyphenyl)-4-oxo-3,4-dihydropyrimidin-2-yl)thio)-N-(6-(trifluormethyl)benzo[d]thiazol-2-yl)acetamid]",,,no effect on zebrafish development or heart function; also recorded: did not show a phenotypic effect,,
9.1 ± 1.6,18.0 ± 4.8,Yes (severe),10.0 ± 1.3,11.9 ± 3.2,25.5 ± 10.7,1400,"COc1cccc(-n2c(SCC(=O)Nc3nc4ccc(C(F)(F)F)cc4s3)nccc2=O)c1 [G2-6, 2-((3-(3-Methoxyphenyl)-4-oxo-3,4-dihydropyrimidin-2-yl)thio)-N-(6-(trifluormethyl)benzo[d]thiazol-2-yl)acetamid]","cardiac phenotype, with bradycardia and blood congestion, resulting in cardiac edema",blood congestion and pericardial edema,"strong cardiac phenotype, with blood congestion, a strong bradycardia and partially total loss of heart beat; also recorded: severe effects on the embryonic development, with strong bradycardia and blood congestion; also recorded: blood congestions; also recorded: pericardial edema","bradycardia, a loss of ventricular beating and as a result pericardial edema",dose dependence of phenotype ([2]; 48 h of incubation): increasingly severe cardiac malfunctions with increasing compound concentrations
,,,,,,,"csnk1db morpholino: morpholino-modified antisense oligonucleotide targeting the translational start site of csnk1db, 5′-CTGTTTCCAACTCGTAGCTCCATTG-3′ (all phosphorodiamidate morpholino (PMO))",,,,,phenotype of morpholino injected embryos [10]: reduced heart function resulting in blood congestion; phenotype of morpholino injected embryos ([10]; listed as csnk1db): cardiac malfunction; also recorded: slightly curved body axis; phenotype of morpholino injected embryos ([10]; listed as csnk1db Morpholino): reduced heart function

Molecule,mean residual kinase activity ± SD [3] [%],mean residual kinase activity ± SD [4] [%],"Phenotypic changes (with severity) after treatment of zebrafish embryos with 20 µM inhibitor ([2]; 20 µM in medium, from 24 hpf)",mean residual kinase activity ± SD [6] [%],mean residual kinase activity ± SD [7] [%],mean residual kinase activity ± SD [8] [%],IC50 [9] [nM],phenotype of treated zebrafish embryos ([2]; 5 µM),phenotype of treated zebrafish embryos ([2]; 10 µM),phenotype of treated zebrafish embryos ([2]; 20 µM),phenotype of treated zebrafish embryos ([2]; 40 µM),further results
O=C(CSc1nccc(=O)n1Cc1ccc(C(F)(F)F)cc1)Nc1nc2ccc(C(F)(F)F)cc2s1 [G2-2],8.4 ± 1.1,11.9 ± 2.0,Yes (severe),16.1 ± 9.5,12.1 ± 3.9,10.5 ± 3.0,,"cardiac phenotype, with bradycardia and blood congestion",did not pump blood; also recorded: reduced heart function; also recorded: blood congestion and pericardial edema,"strong cardiac phenotype, with blood congestion, a strong bradycardia and partially total loss of heart beat; also recorded: severe effects on the embryonic development, with strong bradycardia and blood congestion; also recorded: blood congestions; also recorded: pericardial edema","dead and highly toxic, and all treated embryos were dead after 48 h of treatment","IC50 ([1]; ref Liu et al., 2019): 120 nM; IC50 [3, 11]: 503 nM; Ki [3, 12]: 251 nM; concentration that induced necrosis ([2]; 48 h of incubation, doses 5, 10, 20 and 40 µM): 40 µM; lethality to embryos ([2]; at concentrations of 20 and 40 μM): lethal; IC50 [5]: 926 nM; IC50 [6, 11]: 270 nM; Ki [6, 12]: 135 nM; IC50 [7, 11]: 345 nM; Ki [7, 12]: 173 nM"

# — article PMC10518421, “Zebrafish as model system for the biological characterization of CK1 inhibitors” (Frontiers in Pharmacology, 2023)
